Source: ChEMBL document CHEMBL1201862, “PubChem BioAssay data set” (2004)
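1) Cells in 96-well plates. 2) Compound, 48 h, 5 concentrations. 3) Linear interpolation between surrounding doses. 4) Unreached endpoint = highest concentration. Abbreviation: GI50, concentration required for 50% inhibition of growth.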 The source made the active and inactive calls. Rule as the data show it: active = GI50 up to about 1.1 µM and inactive = higher.

Experiments:
Experiment in all cases: growth of human tumour cells (NCI), 48 h
A498 = tested on: A498
A549 = tested on: A549
COLO 205 = tested on: COLO 205
HCT-116 = tested on: HCT-116
Hs-578T = tested on: Hs-578T
MDA-MB-231 = tested on: MDA-MB-231
MOLT-4 = tested on: MOLT-4
Malme-3M = tested on: Malme-3M
NCI-H460 = tested on: NCI-H460
NCI/ADR-RES = tested on: NCI/ADR-RES
OVCAR-4 = tested on: OVCAR-4
RPMI-8226 = tested on: RPMI-8226
SF-268 = tested on: SF-268
SK-MEL-28 = tested on: SK-MEL-28
SK-OV-3 = tested on: SK-OV-3
SNB-19 = tested on: SNB-19
SNB-75 = tested on: SNB-75
TK-10 = tested on: TK-10
UACC-62 = tested on: UACC-62

Measured: GI50

CCOC(=O)c1c(CN2CCCC2)n(-c2ccccc2)c2cc(Br)c(O)cc12
inactive: A498 16.4 µM | A549 16 µM | COLO 205 10.5 µM | HCT-116 16 µM | Hs-578T 26.4 µM | MDA-MB-231 17.8 µM | MOLT-4 17 µM | Malme-3M 19.5 µM | NCI-H460 17 µM | NCI/ADR-RES 22.4 µM | OVCAR-4 14.3 µM | RPMI-8226 16.2 µM | SF-268 19.9 µM | SK-MEL-28 15.1 µM | SK-OV-3 25.8 µM | SNB-19 16.5 µM | SNB-75 15.3 µM | TK-10 20.5 µM | UACC-62 16.7 µM

O=C(Nc1sccc1S(=O)(=O)c1ccc(Cl)cc1)c1ccc(Cl)cc1Cl
inactive: A498 > 100 µM | A549 > 95.7 µM | COLO 205 > 100 µM | HCT-116 > 100 µM | Hs-578T > 100 µM | MDA-MB-231 > 100 µM | MOLT-4 > 85.9 µM | Malme-3M > 100 µM | NCI-H460 > 95.7 µM | NCI/ADR-RES > 100 µM | OVCAR-4 > 93.8 µM | RPMI-8226 10.7 µM | SF-268 > 100 µM | SK-MEL-28 > 100 µM | SK-OV-3 > 100 µM | SNB-19 > 100 µM | SNB-75 > 100 µM | TK-10 > 100 µM | UACC-62 > 62.2 µM

NCCNc1ncnc2ccc(Cl)cc12
inactive: A498 37.9 µM | A549 93.8 µM | COLO 205 49.3 µM | HCT-116 67.8 µM | Hs-578T > 100 µM | MDA-MB-231 93.1 µM | Malme-3M > 100 µM | NCI-H460 32.8 µM | NCI/ADR-RES > 100 µM | OVCAR-4 > 100 µM | RPMI-8226 96.2 µM | SF-268 81.1 µM | SK-MEL-28 > 100 µM | SK-OV-3 > 100 µM | SNB-19 > 100 µM | SNB-75 97.5 µM | TK-10 28.6 µM | UACC-62 93.5 µM

N#CC(C#N)=NNc1ccc2cn[nH]c2c1
inactive: A498 > 100 µM | A549 > 100 µM | COLO 205 25.6 µM | HCT-116 20.5 µM | Hs-578T 24.8 µM | MDA-MB-231 > 100 µM | MOLT-4 21.5 µM | Malme-3M 28.4 µM | NCI-H460 57.3 µM | NCI/ADR-RES > 100 µM | OVCAR-4 30.7 µM | RPMI-8226 26.2 µM | SF-268 36.3 µM | SK-MEL-28 > 100 µM | SK-OV-3 > 100 µM | SNB-19 > 100 µM | TK-10 26.7 µM | UACC-62 > 100 µM
